According to PMC2967473, “PP2A1 Binding, Cell Transducing and Apoptotic Properties of Vpr77–92: A New Functional Domain of HIV-1 Vpr Proteins” (PLoS ONE, 2010):
Residues, ends and D or L forms follow the SMILES beside them. *: point of attachment. Biotin = O=C1N[C@H]2[C@H](CS[C@H]2CCCCC(=O)*)N1

Tests used:
HeLa cells = experiment: Cell penetration and localization of biotinylated peptides; type: cell-based, human; settings: 150 µM biotinylated peptide, 2 h, 37°C, streptavidin-peroxydase/DAB staining, microscopy; for Cell penetration: fixation
Procedure: A total of 4×10^4 exponentially proliferating HeLa cells growing in a sub confluent monolayer were seeded per well on a Lab-Tek and incubated at 37°C, 5% CO2. Biotinylated peptides were added 48 h later to the cells at different concentrations for different periods of time. Cells were washed twice in PBS, and fixed with absolute ethanol for 10 min at –20°C before addition of 100 µM of streptavidin HRP conjugate After 30 min incubation at 37°C, cells were rinsed twice in PBS and incubated with DAB for around 10 min. Cells were washed in distilled water and mounted for microscopic examination.

PP2A1 holoenzyme = experiment: Affinity chromatography of PP2A1 on Vpr-T-agarose column, phosphorylase a phosphatase assay; type: binding, pig; settings: 16 µg PP2A1 on 1 mL column, buffer C pH 7.4, linear gradient to 1 M NaCl, phosphorylase a as substrate
Procedure: Figure 1 Analysis of HIV-1 Vpr and PP2A1 interaction. (A) 16 µg of PP2A1 holoenzyme purified from pig brain was loaded on a 1 mL HIV-1 strain 89.6-Vpr-T-agarose column equilibrated in buffer C (25 mM TrisHCl pH 7.4, 50 mM NaCl, 0.1 mM EDTA). The column was washed with 10 mL of buffer C and then developed with a 18 mL linear gradient of buffer C to buffer C plus 1 M NaCl. Phosphatase activity of collected fractions was assayed with phosphorylase a as substrat (1U = 1 pm of phosphate liberated by 10 µL of fraction/min). A major peak of phosphatase activity was detected, eluting at 0.3 M NaCl. (B) ECL revelation of PP2A binding assay on cellulose-bound Vpr peptides. 43 overlapping dodecapeptides with a two-amino acid shift scanning the entire 89.6-Vpr sequence (accession number: AAA81039) were synthesized on a cellulose membrane. The membrane was incubated with PP2A1 holoenzyme (upper panel) or PP2A-A subunit (lower panel) and subsequently with anti-PP2A antibodies followed by peroxydase-labelled anti-guinea pig antibodies. (C) Sequence of HIV-1 Vpr protein: sequence of the two PP2A-A binding sites are indicated in bold. These sequences correspond to overlapping sequences of positive dodecapeptides 29 to 32 (PP2A-A subunit incubation) or 39 to 41 (PP2A1 incubation). (D) Co-precipitation of DPT-Vpr peptides with PP2A1 in HeLa cell extracts. […]

## CC[C@H](C)[C@H](NC(=O)CNC(=O)[C@@H](NC(=O)[C@H](C)NC(=O)[C@H](CO)NC(=O)[C@H](Cc1c[nH]cn1)NC(=O)[C@H](C)NC(=O)CCCC[C@@H]1SC[C@@H]2NC(=O)N[C@@H]21)[C@@H](C)CC)C(=O)N[C@H](C(=O)N[C@@H](CCC(N)=O)C(=O)N[C@@H](CCC(N)=O)C(=O)N[C@@H](CCCNC(=N)N)C(=O)N[C@@H](CCCNC(=N)N)C(=O)N[C@@H](C)C(=O)N[C@@H](CCCNC(=N)N)C(=O)N[C@@H](CC(N)=O)C(=O)NCC(=O)O)[C@@H](C)CC [DPT-Vpr3] (Biotin-AHSAIGIIQQRRARNG-OH)
HeLa cells
  Cell penetration: penetrate into HeLa cells
  Intra-cellular localization: homogeneous cytoplasm labeling

## CC[C@H](C)[C@H](NC(=O)CNC(=O)[C@@H](NC(=O)[C@H](CCCNC(=N)N)NC(=O)[C@H](CO)NC(=O)[C@H](Cc1c[nH]cn1)NC(=O)[C@H](CCCNC(=N)N)NC(=O)CCCC[C@@H]1SC[C@@H]2NC(=O)N[C@@H]21)[C@@H](C)CC)C(=O)N[C@H](C(=O)N[C@@H](CCC(N)=O)C(=O)N[C@@H](CCC(N)=O)C(=O)N[C@@H](CCCNC(=N)N)C(=O)N[C@@H](CCCNC(=N)N)C(=O)N[C@H](C(=O)N[C@@H](CCCNC(=N)N)C(=O)N[C@@H](CC(N)=O)C(=O)NCC(=O)O)[C@@H](C)O)[C@@H](C)CC [DPT-Vpr1]
HeLa cells
  Cell penetration: penetrate into HeLa cells
  Intra-cellular localization: homogeneous cytoplasm labeling

## N=C(N)NCCC[C@H](NC(=O)[C@H](CCCNC(=N)N)NC(=O)[C@H](CCC(N)=O)NC(=O)[C@H](CCCNC(=N)N)NC(=O)[C@H](CCCNC(=N)N)NC(=O)[C@H](CCCCN)NC(=O)[C@H](CCCCN)NC(=O)[C@H](CCCNC(=N)N)NC(=O)CNC(=O)[C@H](Cc1ccc(O)cc1)NC(=O)CCCC[C@@H]1SC[C@@H]2NC(=O)N[C@@H]21)C(=O)O [Tat, reference compound] (Biotin-YGRKKRRQRR-OH)
HeLa cells
  Cell penetration: penetrate into HeLa cells
  Intra-cellular localization: homogeneous cytoplasm labeling

B1: Vpr-T: full length HIV-1 89.6-Vpr in a 6-his C-term tagged form, expressed in bacteria (protein)
chain: MEQAPEDQGPQREPYNDWTLELLEELKNEAVRHFPRIWLHSLGQHIYETYGDTWTGVEALIRILQQLLFIHFRIGCRHSRIGIIQQRRTRNGASKS
modifications: left off: His6, C-terminal, kept
notes: full length HIV-1 89.6-Vpr in a 6-his C-term tagged form, expressed in bacteria
PP2A1 holoenzyme
  NaCl concentration at which bound PP2A1 phosphatase activity elutes from the Vpr-T-agarose column: 0.3 M NaCl
